Results published in ChEMBL document CHEMBL6182912, “Development of Novel Phthalazinone-Triazole Hybrids as Potential Antidiabetic Agents Targeting GLUT4 Translocation in Skeletal Muscle” (J Med Chem, 2025).
Active and inactive are the calls of the source. The rule behind the calls is not given here.

Experiments:
[1] = target: T1, Solute carrier family 2, facilitated glucose transporter member 4 (Rattus norvegicus) (UniProt P19357); assay: Modulation of GLUT4 translocation in rat L6-GLUT4myc skeletal muscle cells assessed as increase in surface GLUT4myc level by measuring fold stimulation at 10 uM measured after 16 hrs by O-phenylenediamine assay relative to control; assay type: cell-based; conditions: filed as modulator
T1 sequence (whole entry): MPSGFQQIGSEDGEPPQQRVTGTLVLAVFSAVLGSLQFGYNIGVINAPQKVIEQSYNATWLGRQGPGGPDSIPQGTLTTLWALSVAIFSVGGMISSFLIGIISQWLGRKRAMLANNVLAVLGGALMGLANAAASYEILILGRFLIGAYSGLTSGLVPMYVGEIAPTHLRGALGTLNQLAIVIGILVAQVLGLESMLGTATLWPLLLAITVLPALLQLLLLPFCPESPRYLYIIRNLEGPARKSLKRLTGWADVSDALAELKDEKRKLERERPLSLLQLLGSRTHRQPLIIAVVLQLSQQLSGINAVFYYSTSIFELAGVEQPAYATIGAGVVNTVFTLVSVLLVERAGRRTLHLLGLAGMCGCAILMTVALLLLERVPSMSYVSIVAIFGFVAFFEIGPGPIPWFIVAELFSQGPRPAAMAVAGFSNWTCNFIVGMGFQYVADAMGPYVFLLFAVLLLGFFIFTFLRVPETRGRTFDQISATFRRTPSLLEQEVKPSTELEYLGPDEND

[2] = tested on: L6-GLUT4myc; assay: Effect on AKT2 mRNA level in rat L6-GLUT4myc at 10 uM incubated for 16 hrs by RT-PCR analysis; assay type: functional, cell-based
[3] = target: T1, Solute carrier family 2, facilitated glucose transporter member 4 (Rattus norvegicus); assay: Modulation of GLUT4 translocation in rat L6-GLUT4myc skeletal muscle cells assessed as increase in GLUT4 mRNA level at 10 uM incubated for 16 hrs by RT-PCR analysis; assay type: cell-based; conditions: filed as modulator
[4] = tested on: Rattus norvegicus; assay: Anti-hyperglycemic effect in STZ-induced diabetic male Sprague-Dawley rat assessed as reduction in blood glucose level at 100 mg/kg, po measured after 5 hrs relative to control; assay type: functional; parameters: scale not given: the % may be the effect or the level left
[5] = Stability in SGF at pH 1.2 assessed as compound remaining measured after 120 mins by UPLC analysis; assay type: physicochemical; conditions: read-out: Stability
[6] = Stability in rat plasma assessed as compound remaining measured after 120 mins by UPLC analysis; assay type: ADME, cell-free; conditions: read-out: Stability
[7] = tested on: Rattus norvegicus; assay: Anti-hyperglycemic effect in STZ-induced diabetic male Sprague-Dawley rat assessed as reduction in blood glucose level at 100 mg/kg, po; assay type: functional, organism-based; conditions: time 30-300 min
[8] = tested on: L6-GLUT4myc; assay: Effect on IRS1 mRNA level in rat L6-GLUT4myc at 10 uM incubated for 16 hrs by RT-PCR analysis; assay type: functional, cell-based
[9] = target: T1, Solute carrier family 2, facilitated glucose transporter member 4 (Rattus norvegicus); assay: Modulation of GLUT4 translocation in rat L6-GLUT4myc skeletal muscle cells assessed as increase in surface GLUT4myc level measured after 16 hrs by O-phenylenediamine assay; assay type: cell-based; conditions: filed as modulator, dose 5-25 µM
[10] = target: T1, Solute carrier family 2, facilitated glucose transporter member 4 (Rattus norvegicus); assay: Modulation of GLUT4 translocation in rat L6-GLUT4myc skeletal muscle cells assessed as increase in AMPK-alpha phosphorylation at Thr172 at 10 uM incubated for 16 hrs by Western blot analysis; assay type: cell-based; conditions: filed as modulator
[11] = Stability in SIF at pH 6.8 assessed as compound remaining measured after 120 mins by UPLC analysis; assay type: physicochemical; conditions: read-out: Stability
[12] = target: T1, Solute carrier family 2, facilitated glucose transporter member 4 (Rattus norvegicus); assay: Modulation of insulin-stimulated GLUT4 translocation in rat L6-GLUT4myc skeletal muscle cells assessed as increase in AKT phosphorylation Ser473 at 10 uM pretreated with compound and wortmannin for 16 hrs followed by insulin addition measured after 10 mins by Western blot analysis; assay type: cell-based; conditions: time 970.0 min
[13] = target: T1, Solute carrier family 2, facilitated glucose transporter member 4 (Rattus norvegicus); assay: (§1) Modulation of insulin-stimulated GLUT4 translocation in rat L6-GLUT4myc skeletal muscle cells assessed as increase in surface GLUT4myc level at 10 uM pretreated with compound and wortmannin for 16 hrs and cultured final 3 hrs of compound treatment in serum-starved medium followed by insulin addition measured after 20 mins by O-phenylenediamine assay; assay type: cell-based; conditions: time 980.0 min
[14] = Stability in SPF at pH 7.4 assessed as compound remaining measured after 120 mins by UPLC analysis; assay type: physicochemical; conditions: read-out: Stability
[15] = target: T1, Solute carrier family 2, facilitated glucose transporter member 4 (Rattus norvegicus); assay: Modulation of insulin-stimulated GLUT4 translocation in rat L6-GLUT4myc skeletal muscle cells assessed as increase in AKT phosphorylation Ser473 at 10 uM pretreated with compound for 16 hrs followed by insulin addition measured after 10 mins by Western blot analysis; assay type: cell-based; conditions: filed as modulator, time 970.0 min
[16] = target: T1, Solute carrier family 2, facilitated glucose transporter member 4 (Rattus norvegicus); assay: as §1, with “overnight” for “and wortmannin for 16 hrs”; assay type: cell-based; conditions: filed as modulator
[17] = target: T1, Solute carrier family 2, facilitated glucose transporter member 4 (Rattus norvegicus); assay: Modulation of GLUT4 translocation in rat L6-GLUT4myc skeletal muscle cells assessed as increase in surface GLUT4myc level by measuring fold stimulation at 500 uM measured after 16 hrs by O-phenylenediamine assay relative to control; assay type: cell-based; conditions: filed as modulator
[18] = target: T1, Solute carrier family 2, facilitated glucose transporter member 4 (Rattus norvegicus); assay: Modulation of GLUT4 translocation in rat L6-GLUT4myc skeletal muscle cells assessed as increase in surface GLUT4myc level by measuring fold stimulation at 1 mM measured after 1 hr by O-phenylenediamine assay relative to control; assay type: cell-based; conditions: filed as modulator
[19] = tested on: Rattus norvegicus; assay: Anti-hyperglycemic effect in STZ-induced diabetic male Sprague-Dawley rat assessed as reduction in blood glucose level at 300 mg/kg, po measured after 5 hrs relative to control; assay type: functional; parameters: scale not given: the % may be the effect or the level left
[20] = target: T1, Solute carrier family 2, facilitated glucose transporter member 4 (Rattus norvegicus); assay: as §1, with “50 nM” for “10 uM”, “compound” for “compound and wortmannin”; assay type: cell-based; conditions: time 980.0 min
[21] = target: T1, Solute carrier family 2, facilitated glucose transporter member 4 (Rattus norvegicus); assay: Modulation of insulin-stimulated GLUT4 translocation in rat L6-GLUT4myc skeletal muscle cells assessed as increase in AKT phosphorylation Ser473 pretreated with compound for 16 hrs followed by insulin addition measured after 10 mins by Western blot analysis; assay type: cell-based; conditions: time 970.0 min

Cc1ccc(-n2cc(COC(=O)c3cc(Cc4n[nH]c(=O)c5ccccc45)ccc3F)nn2)cc1
fold change (FC) [1]: 0.98

O=C(NCc1cn(-c2ccccc2F)nn1)c1cc(Cc2n[nH]c(=O)c3ccccc23)ccc1F
fold change (FC) [1]: 0.86

O=C(NCc1cn(-c2cccc(F)c2)nn1)c1cc(Cc2n[nH]c(=O)c3ccccc23)ccc1F
fold change (FC) [1]: 0.84

COc1cccc(Cl)c1-n1cc(CNC(=O)c2cc(Cc3n[nH]c(=O)c4ccccc34)ccc2F)nn1
fold change (FC) [1]: 1.14

O=C(NCc1cn(-c2ccc(F)cc2F)nn1)c1cc(Cc2n[nH]c(=O)c3ccccc23)ccc1F
fold change (FC) [1]: 1.75

O=C(NCc1cn(-c2ccc(Br)cc2)nn1)c1ccc(Cc2n[nH]c(=O)c3ccccc23)cc1
fold change (FC) [1]: 0.89

O=C(NCc1cn(-c2ccc(OC(F)(F)F)cc2)nn1)c1cc(Cc2n[nH]c(=O)c3ccccc23)ccc1F
fold change (FC) [1]: 1.59

O=C(NCc1cn(-c2ccccc2)nn1)c1ccc(Cc2n[nH]c(=O)c3ccccc23)cc1
fold change (FC) [1]: 1.48

C#CCNC(=O)c1ccc(Cc2n[nH]c(=O)c3ccccc23)cc1
fold change (FC) [1]: 1.17

COc1ccc(-n2cc(COC(=O)c3cc(Cc4n[nH]c(=O)c5ccccc45)ccc3F)nn2)cc1
fold change (FC) [1]: 1.31

COc1ccc(OC)c(-n2cc(CNC(=O)c3cc(Cc4n[nH]c(=O)c5ccccc45)ccc3F)nn2)c1
fold change (FC) [1]: 1.29

O=C(NCc1cn(-c2ccccc2)nn1)c1cc(Cc2n[nH]c(=O)c3ccccc23)ccc1F
Activity [2]: No effect | Activity [3]: Active | Activity [4]: ~38.7% | remaining at 2 h [5]: ≤ 60% | remaining at 2 h [6]: ≤ 60% | Activity [7]: Time-dependent-effect | Activity [8]: No effect | Activity [9]: Dose-dependent-effect | fold change (FC) [1]: 1.93 | Activity [10]: Active | remaining at 2 h [11]: ≤ 60% | Activity [12]: inactive | Activity [13]: inactive | remaining at 2 h [14]: ≤ 60% | Activity [15]: Active | Activity [16]: Active

CC(C)c1ccc(-n2cc(COC(=O)c3cc(Cc4n[nH]c(=O)c5ccccc45)ccc3F)nn2)cc1
fold change (FC) [1]: 1.52

O=C(NCc1cn(-c2ccc(F)cc2)nn1)c1cc(Cc2n[nH]c(=O)c3ccccc23)ccc1F
fold change (FC) [1]: 1.98

COc1cccc(OC)c1-n1cc(CNC(=O)c2cc(Cc3n[nH]c(=O)c4ccccc34)ccc2F)nn1
fold change (FC) [1]: 1.31

COc1ccc(-n2cc(CNC(=O)c3cc(Cc4n[nH]c(=O)c5ccccc45)ccc3F)nn2)cc1
Activity [9]: Dose-dependent-effect | fold change (FC) [1]: 1.92

O=C(NCc1cn(-c2ccc(Cl)c(Cl)c2)nn1)c1cc(Cc2n[nH]c(=O)c3ccccc23)ccc1F
fold change (FC) [1]: 1.49

Cc1ccc(-n2cc(CNC(=O)c3ccc(Cc4n[nH]c(=O)c5ccccc45)cc3)nn2)cc1
fold change (FC) [1]: 0.77

O=C(OCc1cn(-c2ccccc2)nn1)c1cc(Cc2n[nH]c(=O)c3ccccc23)ccc1F
fold change (FC) [17]: 0.97

O=C(NCc1cn(-c2ccc(F)cc2)nn1)c1ccc(Cc2n[nH]c(=O)c3ccccc23)cc1
fold change (FC) [1]: 1.11

O=C(NCc1cn(-c2ccccc2)nn1)c1ccc(Cc2n[nH]c(=O)c3ccccc23)cc1F
fold change (FC) [1]: 1.36

O=C(OCc1cn(-c2ccc(Br)cc2)nn1)c1cc(Cc2n[nH]c(=O)c3ccccc23)ccc1F
fold change (FC) [1]: 1.39

O=C(NCc1cn(-c2ccc(OC(F)(F)F)cc2)nn1)c1ccc(Cc2n[nH]c(=O)c3ccccc23)cc1
fold change (FC) [1]: 1.04

NC(=O)c1ncn([C@@H]2O[C@H](CO)[C@@H](O)[C@H]2O)c1N
fold change (FC) [18]: 1.56

CN(C)C(=N)NC(=N)N [METFORMIN]
Activity [19]: 64.7% | fold change (FC) [17]: 1.65

O=C(NCc1cn(-c2ccc(Br)cc2)nn1)c1cc(Cc2n[nH]c(=O)c3ccccc23)ccc1F
fold change (FC) [1]: 1.87

O=C(OCc1cn(-c2ccc(F)cc2)nn1)c1ccc(Cc2n[nH]c(=O)c3ccccc23)cc1
fold change (FC) [1]: 0.99

CC(C)c1ccc(-n2cc(CNC(=O)c3cc(Cc4n[nH]c(=O)c5ccccc45)ccc3F)nn2)cc1
fold change (FC) [1]: 1.1

O=C(NCc1cn(-c2cccc3ccccc23)nn1)c1cc(Cc2n[nH]c(=O)c3ccccc23)ccc1F
fold change (FC) [1]: 1.15

Cc1ccc(-n2cc(CNC(=O)c3cc(Cc4n[nH]c(=O)c5ccccc45)ccc3F)nn2)cc1
Activity [9]: Dose-dependent-effect | fold change (FC) [1]: 1.92

COc1cccc(-n2cc(CNC(=O)c3cc(Cc4n[nH]c(=O)c5ccccc45)ccc3F)nn2)c1
fold change (FC) [1]: 1.4

COc1ccc(-n2cc(CNC(=O)c3ccc(Cc4n[nH]c(=O)c5ccccc45)cc3)nn2)cc1
fold change (FC) [1]: 1.12

COc1ccccc1-n1cc(CNC(=O)c2cc(Cc3n[nH]c(=O)c4ccccc34)ccc2F)nn1
fold change (FC) [1]: 1.01

COC[C@H]1OC(=O)c2coc3c2[C@@]1(C)C1=C(C3=O)[C@@H]2CCC(=O)[C@@]2(C)C[C@H]1OC(C)=O
Activity [20]: inactive | Activity [21]: inactive

O=C(NCc1cn(-c2ccc(Cl)cc2)nn1)c1cc(Cc2n[nH]c(=O)c3ccccc23)ccc1F
fold change (FC) [1]: 1.53

O=C(NCc1cn(-c2ccc(Cl)cc2)nn1)c1ccc(Cc2n[nH]c(=O)c3ccccc23)cc1
fold change (FC) [1]: 1.09

O=C(NCc1cn(-c2ccc(C(F)(F)F)cc2)nn1)c1cc(Cc2n[nH]c(=O)c3ccccc23)ccc1F
fold change (FC) [1]: 1.77

O=C(OCc1cn(-c2ccccc2)nn1)c1ccc(Cc2n[nH]c(=O)c3ccccc23)cc1
fold change (FC) [1]: 0.94

O=C(OCc1cn(-c2ccc(Br)cc2)nn1)c1ccc(Cc2n[nH]c(=O)c3ccccc23)cc1
fold change (FC) [1]: 1.54

O=C(OCc1cn(-c2ccc(F)cc2)nn1)c1cc(Cc2n[nH]c(=O)c3ccccc23)ccc1F
fold change (FC) [1]: 1.03

Cc1ccc(-n2cc(COC(=O)c3ccc(Cc4n[nH]c(=O)c5ccccc45)cc3)nn2)cc1
fold change (FC) [1]: 0.9

COc1cc(-n2cc(CNC(=O)c3cc(Cc4n[nH]c(=O)c5ccccc45)ccc3F)nn2)cc(OC)c1OC
fold change (FC) [1]: 1.08
